Among the data in publication doi:10.1101/2024.10.14.618121v2 (biorxiv, 2025) are Ki and IC50 values, retold here.

The target of test [1] is T1, DENV3 NS5 MTase (dengue virus type 3, UniProt V9TQY8).
T1 sequence (V9TQY8 2491-2753): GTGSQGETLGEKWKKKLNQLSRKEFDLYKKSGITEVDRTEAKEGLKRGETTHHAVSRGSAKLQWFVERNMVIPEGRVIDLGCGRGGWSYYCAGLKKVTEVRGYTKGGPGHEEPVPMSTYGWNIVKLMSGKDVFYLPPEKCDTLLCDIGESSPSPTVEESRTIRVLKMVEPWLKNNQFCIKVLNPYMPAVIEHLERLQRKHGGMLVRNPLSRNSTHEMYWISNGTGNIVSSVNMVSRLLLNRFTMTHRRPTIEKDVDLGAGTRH
As to the kind of experiment: fluorescence polarization displacement of F-GTP. In kind it is binding. For orientation: Fluorescence polarisation rises when a labelled molecule tumbles more slowly, as on binding a larger partner.

Test [2] deals with T1, DENV3 NS5 MTase. Briefly: fluorescence polarization displacement of F-GTP. In kind it is binding. The source holds these as a separate data set.

SMILES strings stand for the structures.

In general, Ki refers to the equilibrium dissociation constant of an inhibitor or competing ligand from its target. Broadly, the IC50 is the concentration needed to halve the response being measured. As for `O=c1c(O)c(-c2ccc(O)cc2)oc2c(O)c(O)cc(O)c12` [HC, herbacetin], the Ki on DENV3 NS5 MTase [1] was approximately 430 nM. The IC50 on DENV3 NS5 MTase [2] stood at 770 ± 10 nM.
